Assay results as given in PubChem BioAssay (NCI).
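Compound exposure: 48 hours, 5 concentrations, 96-well plates. The concentration for 50% growth inhibition is given as GI50. TGI: total growth inhibition.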

Legend:
Test in all cases: inhibition of tumour cell growth, NCI panel, 48 h
A498 renal = system: A498 renal
NCI/ADR-RES ovarian = system: NCI/ADR-RES ovarian
HOP-92 NSCLC = system: HOP-92 NSCLC
M14 melanoma = system: M14 melanoma
CAKI-1 renal = system: CAKI-1 renal
NCI-H226 lung = system: NCI-H226 lung
NCI-H522 lung = system: NCI-H522 lung
SF-295 CNS = system: SF-295 CNS
OVCAR-5 ovarian = system: OVCAR-5 ovarian
LOX IMVI melanoma = system: LOX IMVI melanoma
SK-MEL-5 melanoma = system: SK-MEL-5 melanoma
RXF 393 renal = system: RXF 393 renal
MCF7 breast = system: MCF7 breast
UO-31 renal = system: UO-31 renal
COLO 205 colon = system: COLO 205 colon
SN12C renal = system: SN12C renal
MDA-MB-231 breast = system: MDA-MB-231 breast
UACC-62 melanoma = system: UACC-62 melanoma
IGROV1 ovarian = system: IGROV1 ovarian
PC-3 prostate = system: PC-3 prostate
HT29 colon = system: HT29 colon
ACHN renal = system: ACHN renal
CCRF-CEM leukemia = system: CCRF-CEM leukemia
SF-539 CNS = system: SF-539 CNS
HCT-116 colon = system: HCT-116 colon
786-0 renal = system: 786-0 renal
HOP-62 NSCLC = system: HOP-62 NSCLC
BT-549 breast = system: BT-549 breast
HL-60(TB) leukemia = system: HL-60(TB) leukemia
SNB-75 CNS = system: SNB-75 CNS
HCC-2998 colon = system: HCC-2998 colon
MDA-MB-435 = system: MDA-MB-435
OVCAR-3 ovarian = system: OVCAR-3 ovarian
KM12 colon = system: KM12 colon
T-47D breast = system: T-47D breast
SK-OV-3 ovarian = system: SK-OV-3 ovarian
DU-145 prostate = system: DU-145 prostate
OVCAR-8 ovarian = system: OVCAR-8 ovarian
RPMI-8226 leukemia = system: RPMI-8226 leukemia
HCT-15 colon = system: HCT-15 colon
UACC-257 melanoma = system: UACC-257 melanoma
SK-MEL-2 melanoma = system: SK-MEL-2 melanoma
SF-268 CNS = system: SF-268 CNS
MOLT-4 leukemia = system: MOLT-4 leukemia
A549 NSCLC = system: A549 NSCLC
NCI-H460 lung = system: NCI-H460 lung
OVCAR-4 ovarian = system: OVCAR-4 ovarian
SNB-19 CNS = system: SNB-19 CNS
HS 578T breast = system: HS 578T breast
U251 CNS = system: U251 CNS
NCI-H23 lung = system: NCI-H23 lung
SW-620 colon = system: SW-620 colon
SK-MEL-28 melanoma = system: SK-MEL-28 melanoma
MALME-3M melanoma = system: MALME-3M melanoma
K-562 leukemia = system: K-562 leukemia
EKVX NSCLC = system: EKVX NSCLC
TK-10 renal = system: TK-10 renal

Structure (SMILES): CCCCCCCC/C=C/CCCCCCCC1=NC(C)(C)CN1CCO
- GI50 (A498 renal): 2.64 µM
- TGI (A498 renal): 16.8 µM
- GI50 (NCI/ADR-RES ovarian): 3.87 µM
- TGI (NCI/ADR-RES ovarian): 13.9 µM
- GI50 (HOP-92 NSCLC): 1.43 µM
- TGI (HOP-92 NSCLC): 7.45 µM
- GI50 (M14 melanoma): 1.74 µM
- TGI (M14 melanoma): 3.21 µM
- GI50 (CAKI-1 renal): 1.56 µM
- TGI (CAKI-1 renal): 3.03 µM
- GI50 (NCI-H226 lung): 12.6 µM
- TGI (NCI-H226 lung): 32.8 µM
- GI50 (NCI-H522 lung): 1.81 µM
- TGI (NCI-H522 lung): 3.58 µM
- GI50 (SF-295 CNS): 1.73 µM
- TGI (SF-295 CNS): 3.36 µM
- GI50 (OVCAR-5 ovarian): 2.73 µM
- TGI (OVCAR-5 ovarian): 7.98 µM
- GI50 (LOX IMVI melanoma): 1.55 µM
- TGI (LOX IMVI melanoma): 2.95 µM
- GI50 (SK-MEL-5 melanoma): 2.87 µM
- TGI (SK-MEL-5 melanoma): 8.4 µM
- GI50 (RXF 393 renal): 2.02 µM
- TGI (RXF 393 renal): 4.37 µM
- GI50 (MCF7 breast): 1.7 µM
- TGI (MCF7 breast): 3.19 µM
- GI50 (UO-31 renal): 2.18 µM
- TGI (UO-31 renal): 6.85 µM
- GI50 (COLO 205 colon): 1.66 µM
- TGI (COLO 205 colon): 3.11 µM
- GI50 (SN12C renal): 4.7 µM
- TGI (SN12C renal): 18 µM
- GI50 (MDA-MB-231 breast): 1.72 µM
- TGI (MDA-MB-231 breast): 3.69 µM
- GI50 (UACC-62 melanoma): 1.72 µM
- TGI (UACC-62 melanoma): 3.42 µM
- GI50 (IGROV1 ovarian): 1.51 µM
- TGI (IGROV1 ovarian): 2.9 µM
- GI50 (PC-3 prostate): 2.19 µM
- TGI (PC-3 prostate): 9.38 µM
- GI50 (HT29 colon): 1.51 µM
- TGI (HT29 colon): 3.1 µM
- GI50 (ACHN renal): 2.28 µM
- TGI (ACHN renal): 5.79 µM
- GI50 (CCRF-CEM leukemia): 2.22 µM
- TGI (CCRF-CEM leukemia): 6.75 µM
- GI50 (SF-539 CNS): 1.68 µM
- TGI (SF-539 CNS): 3.07 µM
- GI50 (HCT-116 colon): 1.59 µM
- TGI (HCT-116 colon): 2.99 µM
- GI50 (786-0 renal): 1.73 µM
- TGI (786-0 renal): 3.14 µM
- GI50 (HOP-62 NSCLC): 1.83 µM
- TGI (HOP-62 NSCLC): 3.29 µM
- GI50 (BT-549 breast): 5.76 µM
- TGI (BT-549 breast): 19.6 µM
- GI50 (HL-60(TB) leukemia): 1.74 µM
- TGI (HL-60(TB) leukemia): 3.81 µM
- GI50 (SNB-75 CNS): 1.83 µM
- TGI (SNB-75 CNS): 4.26 µM
- GI50 (HCC-2998 colon): 1.7 µM
- TGI (HCC-2998 colon): 3.1 µM
- GI50 (MDA-MB-435): 1.73 µM
- TGI (MDA-MB-435): 3.41 µM
- GI50 (OVCAR-3 ovarian): 4.52 µM
- TGI (OVCAR-3 ovarian): 9 µM
- GI50 (KM12 colon): 1.69 µM
- TGI (KM12 colon): 3.06 µM
- GI50 (T-47D breast): 1.94 µM
- TGI (T-47D breast): 4.34 µM
- GI50 (SK-OV-3 ovarian): 9.97 µM
- TGI (SK-OV-3 ovarian): 24.2 µM
- GI50 (DU-145 prostate): 1.72 µM
- TGI (DU-145 prostate): 3.09 µM
- GI50 (OVCAR-8 ovarian): 2.29 µM
- TGI (OVCAR-8 ovarian): 4.74 µM
- GI50 (RPMI-8226 leukemia): 2.02 µM
- TGI (RPMI-8226 leukemia): 4.31 µM
- GI50 (HCT-15 colon): 1.58 µM
- TGI (HCT-15 colon): 3.16 µM
- GI50 (UACC-257 melanoma): 2 µM
- TGI (UACC-257 melanoma): 3.81 µM
- GI50 (SK-MEL-2 melanoma): 1.86 µM
- TGI (SK-MEL-2 melanoma): 3.49 µM
- GI50 (SF-268 CNS): 1.46 µM
- TGI (SF-268 CNS): 2.78 µM
- GI50 (MOLT-4 leukemia): 1.44 µM
- TGI (MOLT-4 leukemia): 4.9 µM
- GI50 (A549 NSCLC): 1.91 µM
- TGI (A549 NSCLC): 3.56 µM
- GI50 (NCI-H460 lung): 1.85 µM
- TGI (NCI-H460 lung): 3.42 µM
- GI50 (OVCAR-4 ovarian): 2.8 µM
- TGI (OVCAR-4 ovarian): 8.59 µM
- GI50 (SNB-19 CNS): 6.26 µM
- TGI (SNB-19 CNS): 21.5 µM
- GI50 (HS 578T breast): 1.76 µM
- TGI (HS 578T breast): 3.98 µM
- GI50 (U251 CNS): 1.62 µM
- TGI (U251 CNS): 2.97 µM
- GI50 (NCI-H23 lung): 1.84 µM
- TGI (NCI-H23 lung): 3.7 µM
- GI50 (SW-620 colon): 1.73 µM
- TGI (SW-620 colon): 3.37 µM
- GI50 (SK-MEL-28 melanoma): 1.89 µM
- TGI (SK-MEL-28 melanoma): 3.39 µM
- GI50 (MALME-3M melanoma): 1.85 µM
- TGI (MALME-3M melanoma): 3.88 µM
- GI50 (K-562 leukemia): 1.3 µM
- TGI (K-562 leukemia): 3.02 µM
- GI50 (EKVX NSCLC): 3.55 µM
- TGI (EKVX NSCLC): 12.8 µM
- GI50 (TK-10 renal): 1.91 µM
- TGI (TK-10 renal): 3.94 µM
